Reference: patent publication US12427212B2, “Nectin-4 binding miniproteins, conjugates and uses thereof” (Aktis Oncology, Inc., priority 2023, dated 2025)
Read-outs that look alike come from different tables or passages of the source. Bridges are numbered along the chain shown (N, C = ends). [ ]: non-standard residue; d: D form. The star is where a group is joined. DOTA = O=C(O)CN1CCN(CC(=O)O)CCN(CC(=O)*)CCN(CC(=O)O)CC1; Biotin = O=C1N[C@H]2[C@H](CS[C@H]2CCCCC(=O)*)N1; Lys(Me3) = C[N+](C)(C)CCCC[C@H](N)C(=O)O; Cit = NC(=O)NCCC[C@H](N)C(=O)O; PEG4 = NCCOCCOCCOCCOCCC(=O)O

What was measured:
[1] = In vivo biodistribution of 111In-labeled miniproteins by SPECT/CT, HT-1376 xenograft; design: species or system mouse; details: female, athymic nude, mouse, in vivo
Text: HT-1376 is a human cell line that expresses Nectin-4.
Humane endpoints: All animals were euthanized following the final imaging time point and carcasses were discarded according to IACUC protocols.
Image Processing: Images were generated as SPECT/CT pairs with the SPECT reported in units of activity.
Image generation: After the preprocessing described in A, individual maximum intensity projections (MIPs) were created with VivoQuant software for each subject at each time point and scaled in percent injected dose per gram (% ID/g). The CT for each image was windowed from −500 to 4500 Hounsfield Units (HU). The SPECT was windowed at various ranges to highlight different regions of uptake. Images were then stitched together using Image Magick based python tools to create montages of subjects over time and time points over groups.

Nectin-4 = target: T1, Nectin-4 (Homo sapiens, UniProt Q96NY8); test: DELFIA whole cell binding assay, equilibrium binding affinity (KD), Table 2B
T1 sequence (Q96NY8 32-510): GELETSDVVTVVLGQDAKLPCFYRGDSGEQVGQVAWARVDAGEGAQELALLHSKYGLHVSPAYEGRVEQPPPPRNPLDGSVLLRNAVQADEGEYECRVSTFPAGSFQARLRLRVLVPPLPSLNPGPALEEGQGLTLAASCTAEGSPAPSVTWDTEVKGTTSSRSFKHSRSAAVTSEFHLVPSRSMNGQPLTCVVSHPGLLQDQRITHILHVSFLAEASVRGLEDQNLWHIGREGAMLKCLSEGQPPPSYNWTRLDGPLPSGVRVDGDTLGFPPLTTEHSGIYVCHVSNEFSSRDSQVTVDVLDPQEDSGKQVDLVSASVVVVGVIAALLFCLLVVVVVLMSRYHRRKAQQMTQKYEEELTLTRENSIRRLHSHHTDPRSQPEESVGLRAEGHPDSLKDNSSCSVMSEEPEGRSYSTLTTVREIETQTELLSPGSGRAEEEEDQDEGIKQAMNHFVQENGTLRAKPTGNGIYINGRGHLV
Description: A whole cell binding assay was used to estimate the equilibrium binding affinity (KD) or binding inhibition constant (Ki) of miniprotein ligands to cells expressing a target of interest. Cells were dispensed into a 384-well plate and incubated at 37° C., in 5% CO2 overnight. The next day cells were gently washed once in assay buffer prior to addition of europium chelated ligand. For KD determination, a miniprotein conjugated with europium chelate (DOTA or DTPA) in the presence or absence of 100-fold excess un-conjugated ligand was incubated with cells over 12 different concentrations ranging from 100 times below and above expected KD values. For Ki determination, a single concentration (KD equivalent concentration) of europium-chelate miniprotein was added to each well followed immediately by the addition of unconjugated competing ligand over 12 different concentrations ranging from 100 times below and above expected Ki values as before. The plate was incubated for 1.5 h at room temperature to reach binding equilibrium. Cells were then washed three times at room temperature with 1×PBS followed by the addition of 2 M HCl and incubated for two h at 37° C. Following this step, 2 M NaOH and fluorescent inducer solution were added to each well and incubated for 30 minutes at room temperature according to the manufacturer's protocol (Perkin-ELMER DELFIA assay). Plates were read on an Envision plate reader and a curve-fitting model was applied to estimate KD and Ki values using GraphPad Prism software. Mean DELFIA K; values for exemplary miniproteins are recorded in TABLE 9A.

[2] = Table 2B, binding to Nectin-4, read-out: Binding Affinity (KD)

| Compound | Kd (Nectin-4) [nM] | other results |
| --- | --- | --- |
| CC[C@H](C)[C@@H]1NC(=O)[C@H](Cc2ccc(O)cc2)NC(=O)[C@H](Cc2ccc(O)cc2)NC(=O)[C@@H]2CSSC[C@@H](C(=O)O)NC(=O)CNC(=O)[C@H](CC(C)C)NC(=O)[C@H](CC(N)=O)NC(=O)[C@H](CCC(=O)O)NC(=O)[C@H](CC(C)C)NC(=O)[C@H]([C@@H](C)CC)NC(=O)[C@H](CCC(=O)O)NC(=O)[C@H](CCC(=O)O)NC(=O)[C@H]([C@@H](C)CC)NC(=O)[C@H](CSSC[C@H](NC(C)=O)C(=O)N[C@@H](CCC(=O)O)C(=O)N[C@@H](Cc3ccc(O)cc3)C(=O)N[C@@H](CC(=O)O)C(=O)N[C@@H](CCC(=O)O)C(=O)N[C@@H](CCC(N)=O)C(=O)N[C@@H](Cc3ccccc3)C(=O)N[C@@H](Cc3ccccc3)C(=O)N[C@@H]([C@@H](C)O)C(=O)N[C@@H](C)C(=O)N[C@@H](CC(C)C)C(=O)N[C@@H](CCCCN)C(=O)N[C@@H](CCCNC(=N)N)C(=O)N[C@@H](CC(C)C)C(=O)N[C@@H](CCCNC(=N)N)C(=O)NCC(=O)NCC(=O)N[C@@H](CC(=O)O)C(=O)N[C@@H]([C@@H](C)CC)C(=O)N2)NC(=O)[C@H](CC(C)C)NC(=O)[C@H](CC(=O)O)NC(=O)[C@@H]2CCCN2C(=O)[C@H](CC(C)C)NC(=O)[C@H]([C@@H](C)O)NC(=O)[C@H](CC(N)=O)NC(=O)[C@H](Cc2ccccc2)NC(=O)[C@H](CCC(N)=O)NC(=O)[C@H](C)NC(=O)[C@H](CO)NC1=O [Compound C100] |  | tissue uptake at 4 h [1]: 112 %ID/g; tissue uptake at 24 h [1]: 61.8 %ID/g |
| Ac-CEYDEEFFAGLKRLRRGDICYYIKKKFDKVPDLCIEEILDKLGC-OH (disulfide 1-34, 20-44) [Compound C14] |  | Kd (Nectin-4; [2]): 14.1 nM |
| Ac-CEYDEEFFKGLKRLRGGDICYYIKKKFKKVPKLCIEEILDKLGC-OH (disulfide 1-34, 20-44) [Compound C80] |  | Kd (Nectin-4; [2]): 2.7 nM |
| Ac-CEYDEEFFLGLKRLRGGDICYYIKKKFKKVPDLCIEEILDKLGC-OH (disulfide 1-34, 20-44) [Compound C34] |  | Kd (Nectin-4; [2]): 3.17 nM |
| Ac-CEYDEEFFLGLKRLRGGDICYYIKKKFKKVPDLCIEEILEKLGC-OH (disulfide 1-34, 20-44) [Compound C60] |  | Kd (Nectin-4; [2]): 3.17 nM |
| Ac-CEYDEEFFLGLKRLRGGDICYYIKKKFKKVPELCIEEILKKLGC-OH (disulfide 1-34, 20-44) [Compound C67] |  | Kd (Nectin-4; [2]): 2.64 nM |
| Ac-CEYDEEFFTALARLRGGDICYYIQAKFQYLPGLCIEEILDNLGCS-OH (disulfide 1-34, 20-44) [Compound C124] |  | Kd (Nectin-4; [2]): 1.1 nM |
| Ac-CEYDEKFFTGLKRLRGGDICYYIKKKFKKVPKLCIEEILDKLGC-OH (disulfide 1-34, 20-44) [Compound C70] |  | Kd (Nectin-4; [2]): 2.2 nM |
| {Biotin-PEG4}-CDYDEEFFTALA[Cit]LRGGDICEYIQAKFQYLPGLCIEEILDNLGCS-OH (disulfide 1-34, 20-44) [Compound C176] | 1.3 |  |
| {Biotin-PEG4}-CDYDEEFFTALKRLRGDDICSYIQASFQYLPGLCIEEILDNLGCS-OH (disulfide 1-34, 20-44) [Compound C192] | 1.3 |  |
| {Biotin-PEG4}-CDYDEEFFTALKRLRGGDICEYIQASFQYLPGLCIEEILDNLGCS-OH (disulfide 1-34, 20-44) [Compound C188] | 1.6 |  |
| {Biotin-PEG4}-CEYDEAFFTALARLRGGDICQYIQAKFQYLPGLCIEEILDNLGCS-OH (disulfide 1-34, 20-44) [Compound C151] | 0.68 |  |
| {Biotin-PEG4}-CEYDEEFFTALARLRGGDICEYIQAKFQYLPKLCIEEILDNLGCS-OH (disulfide 1-34, 20-44) [Compound C167] | 1.2 |  |
| {Biotin-PEG4}-CEYDEEFFTALARLRGGDICQYIQAKFAYVPGLCIEEILDNLGCS-OH (disulfide 1-34, 20-44) [Compound C155] | 1.1 |  |
| {Biotin-PEG4}-CEYDEEFFTALARLRGGDICYYIQAYFQYLPGLCIEEILDNLGCS-OH (disulfide 1-34, 20-44) [Compound C165] | 4.1 |  |
| {Biotin-PEG4}-CEYDEEFFTALA[Cit]LRGDDICSYIQAKFQYLPGLCIEEILDNLGCS-OH (disulfide 1-34, 20-44) [Compound C172] | 1.8 |  |

| Compound | Kd (Nectin-4) [nM] | other results |
| --- | --- | --- |
| {Biotin-PEG4}-CEYDEEFFTALA[Cit]LRGGDICEYIQAKFQYLPGLCIEEILDNLGCS-OH (disulfide 1-34, 20-44) [Compound C171] | 2.2 |  |
| {Biotin-PEG4}-CEYDEEFFTALA[Cit]LRGGDICSYIQAKFQYLPGLCIEEILDNLGCS-OH (disulfide 1-34, 20-44) [Compound C175] | 2.3 |  |
| {Biotin-PEG4}-CEYDEEFFTALKRLRGDDICEYIQASFQYLPGLCIEEILDNLGCS-OH (disulfide 1-34, 20-44) [Compound C181] | 3 |  |
| {Biotin-PEG4}-CEYDEEFFTALKRLRGDDICYYIQASFQYLPGLCIEEILDNLGCS-OH (disulfide 1-34, 20-44) [Compound C180] | 2.7 |  |
| {Biotin-PEG4}-CEYDEEFFTALKRLRGGDICEYIQASFQYLPGLCIEEILDNLGCS-OH (disulfide 1-34, 20-44) [Compound C178] | 1.4 |  |
| {Biotin-PEG4}-CEYDEEFFTALKRLRGGDICEYIQA[Lys(Me3)]FQYLPGLCIEEILDNLGCS-OH (disulfide 1-34, 20-44) [Compound C201] | 0.68 |  |
| {Biotin-PEG4}-CEYDEEFFTALKRLRGGDICYYIQAKFQYLPKLCIEEILDNLGCS-OH (disulfide 1-34, 20-44) [Compound C119] | 0.95 |  |
| {Biotin-PEG4}-CEYDEEFFTALKRLRGGDICYYIQASFQYLPGECIEEILDNLGCS-OH (disulfide 1-34, 20-44) [Compound C177] | 2 |  |
| {Biotin-PEG4}-CEYDEQFFTALARLRGGDICEYIQAKFQYLPGLCIEEILDNLGCS-OH (disulfide 1-34, 20-44) [Compound C146] | 0.54 |  |
| {Biotin-PEG4}-CEYDEQFFTALKRLRGADICDYIQASFQYLPGLCIEEILDNLGCS-OH (disulfide 1-34, 20-44) [Compound C194] | 1.1 |  |
| {Biotin-PEG4}-CEYDEQFFTALKRLRGGDICDYIQASFQYLPGLCIEEILDNLGCS-OH (disulfide 1-34, 20-44) [Compound C196] | 1.6 |  |
| {DOTA-PEG4}-CEYDEEFFTALKRLRGGDICYYIQKAFQYLPGLCIEEILDNLGCS-OH (disulfide 1-34, 20-44) [Compound C121] |  | tissue uptake at 4 h [1]: 100 %ID/g; tissue uptake at 24 h [1]: 60.4 %ID/g |
| {DOTA-PEG4}-CEYDEEFFTALSRLRGGDICYYIQQAFQYLPGLCIEEILDNLGCS-OH (disulfide 1-34, 20-44) [Compound C133] |  | tissue uptake at 4 h [1]: 43.8 %ID/g; tissue uptake at 24 h [1]: 20.9 %ID/g |
| {DOTA-PEG4}-CEYDEQFFTALARLRGGDICYYIQEQFATVPGLCIEEILDQLGCS-OH (disulfide 1-34, 20-44) [Compound C129] |  | tissue uptake at 4 h [1]: 43.5 %ID/g; tissue uptake at 24 h [1]: 19.9 %ID/g |
| {DOTA-PEG4}-CEYDEQFFTALSSLRGGDICYYIQEQFANVPGICIEEILDNLGCS-OH (disulfide 1-34, 20-44) [Compound C137] |  | tissue uptake at 4 h [1]: 78.8 %ID/g; tissue uptake at 24 h [1]: 42.9 %ID/g |
